This note sets out measurements from patent publication US20250367209A1 (SOUTHERN RESEARCH INSTITUTE, priority 2022, published 2025).

Bounds are passed on as bounds.

Sequence of Tau-FynSH3 interaction (P10636 other isoform, or with tags, fused parts or gaps): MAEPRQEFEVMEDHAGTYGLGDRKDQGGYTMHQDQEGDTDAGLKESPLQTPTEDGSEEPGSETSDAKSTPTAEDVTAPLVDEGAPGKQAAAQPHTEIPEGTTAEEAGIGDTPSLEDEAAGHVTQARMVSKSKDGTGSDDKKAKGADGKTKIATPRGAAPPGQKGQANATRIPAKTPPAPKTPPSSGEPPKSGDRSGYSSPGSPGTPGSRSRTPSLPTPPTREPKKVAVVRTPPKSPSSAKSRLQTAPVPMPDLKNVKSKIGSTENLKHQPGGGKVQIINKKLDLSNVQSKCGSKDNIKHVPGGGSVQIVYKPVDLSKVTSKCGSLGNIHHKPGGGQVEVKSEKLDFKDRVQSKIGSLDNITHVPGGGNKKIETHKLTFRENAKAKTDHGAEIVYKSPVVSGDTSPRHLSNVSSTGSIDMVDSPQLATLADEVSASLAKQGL

One assay concerns the target Tau-FynSH3 interaction (Homo sapiens (Human), UniProt P10636). The experiment in a line: Tau-FynSH3 AlphaScreen. In kind it is binding.
Details: not given
An excerpt: Human Fyn-SH3 domain with GST-tag at the N-terminus and a Strep-tag II ([…]) at the C-terminus (GST-Fyn-SH3-Strep) was cloned into pPR-IBA1 vector (IBA Lifesciences) (Cochran, et al. (2014) J. Biomol. Screen. 19, 1338-1349). Codon-optimized human 4R2N Tau for E. coli expression with a Strep-tag II at the C-terminus (His-Tau-Strep) was cloned into pET-28a(+) vector (Novagen). The constructs were transformed into E. coli BL-21(DE3) competent cells (Novagen). For GST-Fyn-SH3-Strep purification, a single colony was inoculated in Luria-Bertani (LB) broth at 37° C. overnight. 10 mL cell culture was added into 500 mL LB medium and cultured at 37° C. 0.5 mM Isopropyl β-D-1-thiogalactopyranoside (IPTG) was added into the culture when OD600 reached 0.7. Cells were further cultured at 25° C. for 4 hours and harvested. Cell pellet was resuspended in lysis buffer (20 mM Tris pH 7.9, 300 mM NaCl, 1 mM TCEP) with 1 tablet of EDTA-free protease inhibitors (ThermoFisher) and 1 mg/ml lysozyme. Cells were disrupted by sonication and debris was removed by centrifugation at 9500 rpm for 1 hour. Supernatant was loaded onto a glutathione-sepharose column (Cytiva). The column was washed in lysis buffer and protein eluted in lysis buffer containing 25 mM reduced glutathione. For His-Tau-Strep protein purification, cells were inoculated in LB broth medium and cultured at 37° C. overnight. A 10 mL overnight culture was added to 500 mL of auto-induction medium (Studier, F. W. (2005) Protein Expr Purif 41, 207-34) and cells were cultured at 37° C. for about 5 hours. The temperature was lowered to 18° C., and cells were cultured overnight. Cells were harvested and resuspended in lysis buffer with 20 mM imidazole, protease inhibitors, and lysozyme. Cells were disrupted by sonication and cell pellets were spun down at 9500 rpm for 1 hour. Supernatant was loaded onto Ni-NTA column (Cytiva) and the column was washed in lysis buffer with 20 mM imidazole. His-Tau-Strep protein was eluted in lysis buffer containing 400 mM imidazole. Both eluted GST-Fyn-SH3-Strep and His-Tau-Strep protein solutions were passed through G-25 desalting column (Cytiva) with lysis buffer and loaded onto high capacity Strep-Tactin column (IBA Lifesciences). The columns were washed in Buffer W (IBA Life sciences) and proteins were eluted in Buffer E (IBA life sciences). The eluted proteins were passed through G-25 desalting column again. Both GST-Fyn-Strep and His-Tau-Strep proteins were concentrated and diluted 1:1 in ethylene glycol as a cryoprotectant for storage at −80° C.
AlphaScreen was conducted with 10 µg/mL of glutathione donor beads (PerkinElmer, Waltham, MA) and nickel chelate acceptor beads (PerkinElmer) in 10 mM Bis-Tris (pH 7.0), 1 mM TCEP, 0.02% casein, and 0.1% Tween-20. Compounds were plated first followed by addition of one the proteins at 600 nM and incubation for 30 min. The second protein was added and incubated for 30 mn, then the beads were added simultaneously and the final mixture was incubated for 2 hours. Experiments were conducted in 384-well plates (6007290; PerkinElmer) and results were read on a PHERAstar plate reader (BMG Labtech, Cary, NC).
˜50,000 compounds from the Enamine and Southern Research libraries were screened to identify Tau-FynSH3 interaction inhibitors using an AlphaScreen assay (Cochran, et al. (2014) J. Biomol. Screen. 19, 1338-1349). Compounds that were >3 standard deviations above mean inhibition were selected, yielding 1,852 hits (FIG. 1A). […]. These 39 compounds were tested in a live-cell BRET assay to measure Tau-Fyn interaction in cells. […]. Screen. 19, 1338-1349).
A general note: Bead proximity is the source of the signal in Alpha formats.
As to `O=C(CN1CCSc2ccccc21)Nc1ncc(-c2ccccn2)o1` [compound 68], the “AlphaScreen activity (in words)” value is reported as “lost activity”.

Staying with this assay, now noted: Table 2; Tau-FynSH3 inhibitory activity in the AlphaScreen; read-out: IC50.
In general, IC50 refers to the concentration at which inhibition is half-maximal. On to `O=C(CCN1C(=O)CCc2ccccc21)Nc1nnc(-c2ccccn2)[nH]1` [compound no. 3, 3-(2-Oxo-3,4-DIHYDROQUINOLIN-1(2H)-YL)-N-(5-(PYRIDIN-2-YL)-4H-1,2,4-TRIAZOL-3-YL)PROPANAMIDE], for which the IC50 was greater than 100000 nM.
For `O=C(CN1C(=O)CCc2ccccc21)Nc1nnc(-c2ccccn2)[nH]1` [compound no. 2, 2-(2-OXO-3,4-DIHYDROQUINOLIN-1(2H)-YL)-N-(5-(PYRIDIN-2-YL)-4H-1,2,4-TRIAZOL-3-YL)ACETAMIDE], the IC50 stood at 2720 nM.
On to `O=C(CN1CCSc2ccccc21)Nc1ncc(-c2ccccn2)o1` [compound 68], for which the IC50 was greater than 100000 nM.

The assay is the same for the next values; noted with them: Table 3.
Take `O=C1COc2ccccc2N1Cc1nnc(-c2ccccn2)[nH]1` [compound 28, 4-((5-(PYRIDIN-2-YL)-4H-1,2,4-TRIAZOL-3-YL)METHYL)-2H-BENZO[B][1,4]OXAZIN-3(4H)-ONE]: the “Alpha screen IC50 (μM)” value is on record as “Inactive”.
Take `O=C(CN1C(=O)CSc2ccccc21)Nc1cccc(C(=O)N2CCOCC2)c1` [compound 44, N-(3-(MORPHOLINE-4-CARBONYL)PHENYL)-2-(3-OXO-2,3-DIHYDRO-4H-BENZO[B][1,4]THIAZIN-4-YL)ACETAMIDE]: the “Alpha screen IC50 (μM)” value was “Inactive”.
Consider `O=C1CCc2ccccc2N1Cc1nnc(-c2ccccn2)[nH]1` [compound 29, 1-((5-(PYRIDIN-2-YL)-4H-1,2,4-TRIAZOL-3-YL)METHYL)-3,4-DIHYDROQUINOLIN-2(1H)-ONE], for which the “Alpha screen IC50 (μM)” value is recorded as “Inactive”.
For `O=C(CCN1C(=O)CSc2ccccc21)Nc1ccc(-c2ncc[nH]2)cc1` [compound 41, N-(4-(1H-IMIDAZOL-2-YL)PHENYL)-3-(3-Oxo-2,3-DIHYDRO-4H-BENZO[B][1,4]THIAZIN-4-YL)PROPANAMIDE], the “Alpha screen IC50 (μM)” value is reported as “Inactive”.
Same read-out and setting: under `O=C(CCN1C(=O)CSc2ccccc21)Nc1ccc(-c2ccccc2)cc1` [compound 39, N-([1,1′-BIPHENYL]-4-YL)-3-(3-Oxo-2,3-DIHYDRO-4H-BENZO[B][1,4]THIAZIN-4-YL)PROPANAMIDE] stands “Inactive”; under `O=C(CCN1C(=O)CSc2ccccc21)Nc1ccccc1C(F)(F)F` [compound 36, 3-(3-OXO-2,3-DIHYDRO-4H-BENZO[B][1,4]THIAZIN-4-YL)-N-(2-(TRIFLUOROMETHYL)PHENYL) PROPANAMIDE], “Inactive”.
The same measure, in the same setting: under `O=C(CN1C(=O)CSc2ccccc21)Nc1nnc(-c2ccncc2)[nH]1` [compound 25, 2-(3-Oxo-2,3-DIHYDRO-4H-BENZO[B][1,4]THIAZIN-4-YL)-N-(5-(PYRIDIN-4-YL)-4H-1,2,4-TRIAZOL-3-YL)ACETAMIDE] stands “Inactive”.
As to `O=C(CCN1C(=O)CSc2ccccc21)Nc1ccc(-c2ccccn2)cc1` [compound 38, 3-(3-Oxo-2,3-DIHYDRO-4H-BENZO[B][1,4]THIAZIN-4-YL)-N-(4-(PYRIDIN-2-YL)PHENYL)PROPANAMIDE], the “Alpha screen IC50 (μM)” value is “Inactive”.
Regarding `O=C(CN1C(=O)CSc2ccccc21)Nc1nnc(-c2cccnc2)[nH]1` [compound 24, 2-(3-OXO-2,3-DIHYDRO-4H-BENZO[B][1,4]THIAZIN-4-YL)-N-(5-(PYRIDIN-3-YL)-4H-1,2,4-TRIAZOL-3-YL)ACETAMIDE], the “Alpha screen IC50 (μM)” value is on record as “Inactive”.
Regarding `O=C(CCN1C(=O)CSc2ccccc21)Nc1ccc(-c2cncnc2)cc1` [compound 42, 3-(3-OXO-2,3-DIHYDRO-4H-BENZO[B][1,4]THIAZIN-4-YL)-N-(4-(PYRIMIDIN-5-YL)PHENYL) PROPANAMIDE], the “Alpha screen IC50 (μM)” value is “Inactive”.

Staying with this assay, now noted: Table 3; read-out: Alpha screen IC50.
In the case of `O=C(CN1C(=O)CCc2cc(Cl)ccc21)Nc1nnc(-c2ccccn2)[nH]1` [compound 48, 2-(6-CHLORO-2-OXO-3,4-DIHYDROQUINOLIN-1(2H)-YL)-N-(5-(PYRIDIN-2-YL)-4H-1,2,4-TRIAZOL-3-YL)ACETAMIDE], the IC50 came to 1200 nM.
In the case of `O=C(CN1C(=O)CSc2cc(C(F)(F)F)ccc21)Nc1nnc(-c2ccccn2)[nH]1` [compound 17, 2-(3-OXO-7-(TRIFLUOROMETHYL)-2H-BENZO[B][1,4]THIAZIN-4(3H)-YL)-N-(5-(PYRIDIN-2-YL)-4H-1,2,4-TRIAZOL-3-YL)ACETAMIDE], the IC50 came to 5420 nM.
On the same count and under the same terms, then `O=C(CCN1C(=O)CSc2ccc(Cl)cc21)Nc1nnc(-c2ccccn2)[nH]1` [compound 10, 3-(6-CHLORO-3-OXO-2H-BENZO[B][1,4]THIAZIN-4(3H)-YL)-N-(5-(PYRIDIN-2-YL)-4H-1,2,4-TRIAZOL-3-YL)PROPANAMIDE], with 6780 nM; and `O=C(CCN1C(=O)CSc2cc(C(F)(F)F)ccc21)Nc1nnc(-c2ccccn2)[nH]1` [compound 11, 3-(3-Oxo-7-(TRIFLUOROMETHYL)-2H-BENZO[B][1,4]THIAZIN-4(3H)-YL)-N-(5-(PYRIDIN-2-YL)-4H-1,2,4-TRIAZOL-3-YL)PROPANAMIDE], with 3450 nM.
Turning to `O=C(CCN1C(=O)CSc2ccccc21)Nc1ncc(-c2ccccn2)[nH]1` [compound no. 5, 3-(3-Oxo-2H-BENZO[B][1,4]THIAZIN-4(3H)-YL)-N-(5-(PYRIDIN-2-YL)-1H-IMIDAZOL-2-YL)PROPANAMIDE], the IC50 was determined as 3240 nM.
With `O=C(CN1C(=O)CCc2cc(F)ccc21)Nc1nnc(-c2ccccn2)[nH]1` [compound 51, 2-(6-FLUORO-2-OXO-3,4-DIHYDROQUINOLIN-1(2H)-YL)-N-(5-(PYRIDIN-2-YL)-4H-1,2,4-TRIAZOL-3-YL)ACETAMIDE], the IC50 worked out at 1600 nM.
For the molecule `O=c1sc2ccccc2n1Cc1nnc(-c2ccccn2)[nH]1` [compound 30, 3-((5-(PYRIDIN-2-YL)-4H-1,2,4-TRIAZOL-3-YL)METHYL)BENZO[D]THIAZOL-2(3H)-ONE], the 50% inhibitory concentration (IC50) was determined as 10600 nM.
For `COc1ccc2c(c1)N(CC(=O)Nc1nnc(-c3ccccn3)[nH]1)C(=O)CC2` [compound 50, 2-(7-METHOXY-2-OXO-3,4-DIHYDROQUINOLIN-1(2H)-YL)-N-(5-(PYRIDIN-2-YL)-4H-1,2,4-TRIAZOL-3-YL)ACETAMIDE], the IC50 is 1600 nM.
Consider `Cc1ccc2c(c1)CCC(=O)N2CC(=O)Nc1nnc(-c2ccccn2)[nH]1` [compound 54, 2-(6-METHYL-2-OXO-3,4-DIHYDROQUINOLIN-1(2H)-YL)-N-(5-(PYRIDIN-2-YL)-4H-1,2,4-TRIAZOL-3-YL)ACETAMIDE], for which the IC50 was found to be 1400 nM.
For the molecule `O=C(CN1C(=O)COc2cc(F)ccc21)Nc1nnc(-c2ccccn2)[nH]1` [compound 46, 2-(7-FLUORO-3-OXO-2,3-DIHYDRO-4H-BENZO[B][1,4]OXAZIN-4-YL)-N-(5-(PYRIDIN-2-YL)-4H-1,2,4-TRIAZOL-3-YL)ACETAMIDE], the IC50 is 2960 nM.
On the same count and under the same terms, under `Cc1ccc2c(c1)OCC(=O)N2CC(=O)Nc1nnc(-c2ccccn2)[nH]1` [compound 53, 2-(7-METHYL-3-OXO-2,3-DIHYDRO-4H-BENZO[B][1,4]OXAZIN-4-YL)-N-(5-(PYRIDIN-2-YL)-4H-1,2,4-TRIAZOL-3-YL)ACETAMIDE] stands 1600 nM.

The same assay, now with this note: compared to compound no. 20.
On to `O=C(CN1CCCCC1)Nc1nnc(-c2ccccn2)[nH]1` [compound 65], for which the “lower / reduced AlphaScreen activity” value was 8-10 fold.
In the case of `O=C(CN1CCOCC1)Nc1nnc(-c2ccccn2)[nH]1` [compound 66], the “lower / reduced AlphaScreen activity” value was 8-10 fold.

Staying with this assay, now noted: compared to compound no. 55.
For `O=C(CN1C(=O)CSc2ccccc21)Nc1nnc(-c2ccccn2)[nH]1` [compound no. 56], the “improvement in activity in the Tau-FynSH3 AlphaScreen” value was “five-fold improvement in activity”.

The same assay, now with this note: read-out: IC50 in the Tau-FynSH3 AlphaScreen.
On to `O=C(CN1C(=O)CSc2ccccc21)Nc1nnc(-c2ccccn2)[nH]1` [compound no. 56], for which the IC50 was determined as 840 nM.
